Tests used:
β2AR [1] = test: Direct binding assay of in vitro translated tritiated arrestins to purified β2AR reconstituted into phospholipid vesicles; conditions: activated by 0.1 mM agonist isoproterenol, FIG. 1A; for binding to activated unphosphorylated receptor: unphosphorylated β2AR
Description: Mutagenesis and Biochemical Characterization of β-Arrestins—Mutations Arg169→Glu (CGG→GAG), Gln394→Ter (CAA→TAA), and Asp383→Ter (GAT→TAG) were introduced by polymerase chain reaction in β-arrestin construct pBARR (Gurevich et al. (1995) J. Biol. Chem. 270:720-731), that was used for in vitro transcription and translation, as described (Gurevich et al. (1995), supra). NcoI/HindIII 1404-base pair open reading frame was then subdloned into appropriately digested Escherichia coliexpression vector pTrcHisB (Invitrogen). All β-arrestin species were expressed in the in vitro translation system and tested in the direct binding assay (Gurevich et al. (1995), supra), overexpressed in E. coli, purified to apparent homogeneity (Gray-Keller et al. (1997) Biochemistry 36:7058-7063), and characterized in the agonist affinity shift assay (Gurevich et al. (1997) J. Biol Chem. 272:28849-28852), essentially as described.
Direct Binding Assay—In vitro translated tritiated arrestins (50 fmol) were incubated in 50 mM Tris-HCl, pH 7.5, 0.5 mM MgCl2, 1.5 mM dithiothreitol, 50 mM potassium acetate with 7.5 pmol of the various functional forms of rhodopsin or with P-β2AR or β2AR (100 fmol/assay) in a final volume of 50 μl for 5 min at 37° C. in room light (rhodopsin) or for 60 min at 30° C. in the presence of 0.1 mM -agonist isoproterenol. The samples were immediately cooled on ice and loaded onto 2 ml Sepharose 2B columns equilibrated with 20 mM Tris-HCl, pH 7.5, 2 mM EDTA. Bound arrestin eluted with receptor-containing membranes in the void volume (between 0.5 and 1.1 ml). Nonspecific binding determined in the presence of 0.3 μg of liposomes was subtracted.

β2AR [2] = test: Agonist affinity shift assay ([125I] iodopindolol), formation of high agonist affinity complex (HAC); assay type: binding; conditions: 1 μM arrestin, FIG. 2A
Description: Mutagenesis and Biochemical Characterization of β-Arrestins—Mutations Arg169→Glu (CGG→GAG), Gln394→Ter (CAA→TAA), and Asp383→Ter (GAT→TAG) were introduced by polymerase chain reaction in β-arrestin construct pBARR (Gurevich et al. (1995) J. Biol. Chem. 270:720-731), that was used for in vitro transcription and translation, as described (Gurevich et al. (1995), supra). NcoI/HindIII 1404-base pair open reading frame was then subdloned into appropriately digested Escherichia coliexpression vector pTrcHisB (Invitrogen). […]
Agonist Affinity ShiftAssay—P-β2AR or β2AR (10-15 fmol/assay) was incubated in 0.25 ml of 10 mM Tris-HCl, pH 7.4, 100 mM NaCl (buffer A) containing 0.1 mg/ml bovine serum albumin in the presence of 65-75 fmol of [^125I] iodopindolol (NEN Life Science Products) and the indicated concentrations of arrestins and agonists for 60 min at 22° C. […] Receptor-containing liposomes with bound radioligand were eluted with buffer A (between 0.6 and 1.5 ml), and radioactivity was quantitated in a liquid scintillation counter. Nonspecific binding was determined in the presence of 10 μM alprenolol. […]

Substance | binding to activated unphosphorylated receptor (β2AR [1]) | percentage of HAC formed by unphosphorylated β2AR (β2AR [2]) [%] | binding to activated and phosphorylated β2AR (β2AR [1]; phosphorylated β2AR (P-β2AR))
β-arrestin-(1-382): bovine β-arrestin mutant Asp383→Ter, truncated regulatory COOH terminus | significantly higher binding | 22±4 | –
β-arrestin-(1-393): bovine β-arrestin mutant Gln394→Ter, part of the regulatory COOH terminus deleted | bind poorly | – | –
β-arrestin: wild type bovine β-arrestin, comparator for the mutants | bind poorly | – | readily bind

Reference: patent publication US20030157553A1, “Methods of assaying for G protein-coupled receptor ligands and modulators” (priority 2000, published 2003)
